Test results as given in patent publication US11617723B2, “Composition for hepatic arterial chemoembolization using human serum albumin nanoparticles carrying anticancer agent, and method for producing same” (SOGANG UNIVERSITY RESEARCH FOUNDATION, priority 2016, dated 2023).

Test: In vitro drug release behavior (dialysis membrane in phosphate buffer saline, 37° C.)
Format: physicochemical
Details: 2000 Da dialysis membrane, PBS, 5 mg Adriamycin, FIG. 6
Description: In addition, the human serum albumin nanoparticles and lipiodol, which is an embolic material, are mixed in various ratios using the same method as that used in hepatic arterial chemoembolization to be changed into an emulsion form, and the released Adriamycin is quantitatively analyzed to measure drug release behaviors.
To analyze Adriamycin released from the Adriamycin-bound human serum albumin nanoparticles, 1 mL (Adriamycin content: 5 mg) of each of the prepared samples is injected into a 2000 Da dialysis membrane and completely sealed. The resulting structure is added to a tube containing 10 mL of phosphate buffer saline and shaken at 37° C., and the dialysis membrane is transferred to a tube containing 10 mL of phosphate buffer saline at a predetermined time point to obtain each sample every time point. Groups of prepared samples are as follows:
Group 1.—free Adriamycin in phosphate buffer saline (free DOX (PBS)) or contrast media (free DOX(Pamiray)) • free Adriamycin & lipiodol with volume ratio of 1:4 (free DOX (1:4)) • human serum albumin nanoparticles carrying Adriamycin in phosphate buffered saline (DOX-HSA-NPs (PBS)) or a contrast medium (DOX-HSA-NPs (Pamiray)) • human serum albumin nanoparticles carrying Adriamycin & lipiodol in a volume ratio of 1:4 (DOX-HSA-NPs (1:4)) […]

For `COc1cccc2c1C(=O)c1c(O)c3c(c(O)c1C2=O)C[C@@](O)(C(=O)CO)C[C@@H]3O[C@H]1C[C@H](N)[C@H](O)[C@H](C)O1` [free DOX, Adriamycin], the “time of most release of the drug” value was no more than 3 h.
